# Source: ChEMBL document CHEMBL6092154, “Design, synthesis, and evaluation of a novel TRAIL-activated HDAC6 inhibitor for the treatment of pulmonary fibrosis” (Bioorg Med Chem, 2024)
# The source made the active and inactive calls. No cut-off for these calls is given here.
# Experiments:
# [1] = Toxicity against silicosis C57BL/6J mouse model assessed as effect on kidney morphological changes at 50 mg/kg, ig administered daily via gavage and measured on day 28 by Hematoxylin-Eosin staining based analysis; format: organism-based; details: in vivo, po, 672 h, time 28 day
# Histone deacetylase 3 = Histone deacetylase 3 (Homo sapiens, UniProt O15379); assay: Inhibition of HDAC3 (unknown origin) incubated for 30 mins by fluorometric analysis
# Sequence of Histone deacetylase 3 (O15379 whole entry): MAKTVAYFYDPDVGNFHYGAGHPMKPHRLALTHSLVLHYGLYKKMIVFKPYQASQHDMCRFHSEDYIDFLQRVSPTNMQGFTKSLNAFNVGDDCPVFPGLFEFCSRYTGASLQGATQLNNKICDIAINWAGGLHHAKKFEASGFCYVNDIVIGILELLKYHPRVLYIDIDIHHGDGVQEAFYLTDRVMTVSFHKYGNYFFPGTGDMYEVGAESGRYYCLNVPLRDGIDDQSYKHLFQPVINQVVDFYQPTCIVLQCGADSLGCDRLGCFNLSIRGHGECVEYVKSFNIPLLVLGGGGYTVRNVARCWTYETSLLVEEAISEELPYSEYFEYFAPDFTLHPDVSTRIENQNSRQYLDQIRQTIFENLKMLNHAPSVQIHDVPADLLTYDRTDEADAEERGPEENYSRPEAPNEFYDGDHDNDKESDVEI
# Mus musculus [2] = assay: (§1) Anti-pulmonary fibrosis activity in bleomycin-induced idiopathic pulmonary fibrosis C57BL/6J mouse model assessed as decrease in lung damage by measuring decrease in collagen deposition in lungs at 25 to 50 mg/kg, ig administered daily via gavage and measured on day 14 by Masson's trichrome staining based analysis; format: functional, organism-based; details: dose 25-50 mg/kg, time 14.0 day
# RPMI-8226 [3] = assay: Antiproliferative activity against human RPMI-8226 cells assessed as inhibition of cell growth incubated for 24 to 48 hrs by CCK8 assay; format: functional, cell-based
# Mus musculus [4] = assay: Anti-pulmonary fibrosis activity in bleomycin-induced idiopathic pulmonary fibrosis C57BL/6J mouse model assessed as decrease in weight loss at 50 mg/kg, ig administered daily via gavage and measured for 14 days; format: functional, organism-based; details: time 14.0 day
# RPMI-8226 [5] = assay: Increase in DR5 protein expression in human RPMI-8226 cells incubated for 24 hrs by western blot analysis; format: functional, cell-based; details: dose 0.25-1 µM
# [6] = Toxicity against bleomycin-induced pulmonary fibrosis C57BL/6J mouse model assessed as effect on spleen morphological changes at 25 to 50 mg/kg, ig administered daily via gavage and measured on day 14 by Hematoxylin-Eosin staining based analysis; format: organism-based; details: in vivo, po, 336 h, dose 25-50 mg/kg, time 14 day
# [7] = Toxicity against silicosis C57BL/6J mouse model assessed as effect on liver morphological changes at 50 mg/kg, ig administered daily via gavage and measured on day 28 by Hematoxylin-Eosin staining based analysis; format: organism-based; details: in vivo, po, 672 h, time 28 day
# [8] = Toxicity against silicosis C57BL/6J mouse model assessed as uric acid level in serum at 50 mg/kg, ig administered daily via gavage and measured on day 28; format: organism-based; details: in vivo, po, 672 h, time 28 day
# [9] = target: T1, Protein deacetylase HDAC6 (Homo sapiens) (UniProt Q9UBN7); assay: Inhibition of HDAC6 in human RPMI-8226 cells assessed as increase in acetylated alpha-tubulin level at 1 uM incubated for 24 hrs by western blot analysis; format: cell-based
# T1 sequence (whole entry): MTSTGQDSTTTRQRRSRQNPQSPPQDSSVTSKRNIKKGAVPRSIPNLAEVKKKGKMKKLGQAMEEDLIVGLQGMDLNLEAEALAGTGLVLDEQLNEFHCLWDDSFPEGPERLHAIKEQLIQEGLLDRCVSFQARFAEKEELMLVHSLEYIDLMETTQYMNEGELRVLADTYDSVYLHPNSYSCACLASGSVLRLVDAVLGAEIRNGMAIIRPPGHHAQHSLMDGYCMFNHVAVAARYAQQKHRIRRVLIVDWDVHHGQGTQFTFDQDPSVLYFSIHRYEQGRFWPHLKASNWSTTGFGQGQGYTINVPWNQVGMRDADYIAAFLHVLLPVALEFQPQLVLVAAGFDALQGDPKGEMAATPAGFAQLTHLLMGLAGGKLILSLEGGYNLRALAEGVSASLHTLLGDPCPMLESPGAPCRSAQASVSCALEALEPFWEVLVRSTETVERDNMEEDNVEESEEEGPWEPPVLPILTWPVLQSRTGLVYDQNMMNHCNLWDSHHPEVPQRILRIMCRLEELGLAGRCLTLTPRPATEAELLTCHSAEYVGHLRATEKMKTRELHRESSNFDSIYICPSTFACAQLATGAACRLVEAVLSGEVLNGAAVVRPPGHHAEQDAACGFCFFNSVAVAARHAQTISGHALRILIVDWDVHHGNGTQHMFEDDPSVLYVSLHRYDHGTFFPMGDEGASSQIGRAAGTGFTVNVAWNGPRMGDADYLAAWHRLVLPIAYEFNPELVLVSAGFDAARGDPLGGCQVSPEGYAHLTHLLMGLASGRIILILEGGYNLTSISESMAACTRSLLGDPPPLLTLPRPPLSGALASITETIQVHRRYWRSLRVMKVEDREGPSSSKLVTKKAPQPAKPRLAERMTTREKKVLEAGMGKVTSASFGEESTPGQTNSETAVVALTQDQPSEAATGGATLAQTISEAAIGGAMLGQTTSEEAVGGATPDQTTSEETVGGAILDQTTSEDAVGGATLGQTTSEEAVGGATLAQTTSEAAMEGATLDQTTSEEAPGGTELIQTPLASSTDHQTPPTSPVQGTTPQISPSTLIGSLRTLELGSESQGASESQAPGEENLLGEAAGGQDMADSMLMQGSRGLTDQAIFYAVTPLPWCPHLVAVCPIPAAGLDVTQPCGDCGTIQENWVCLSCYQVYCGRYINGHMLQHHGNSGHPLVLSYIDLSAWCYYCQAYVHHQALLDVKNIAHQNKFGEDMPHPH
# [10] = Toxicity against silicosis C57BL/6J mouse model assessed as ALT index in serum at 50 mg/kg, ig administered daily via gavage and measured on day 28; format: organism-based; details: in vivo, po, 672 h, time 28 day
# Mus musculus [11] = assay: as §1, with “inflammatory cell infiltration” for “collagen deposition”; format: functional, organism-based; details: dose 25-50 mg/kg, time 14.0 day
# Mus musculus [12] = assay: as §1, with “lung” for “lungs”, “Hematoxylin-Eosin” for “Masson's trichrome”; format: functional, organism-based; details: dose 25-50 mg/kg, time 14.0 day
# [13] = Toxicity against bleomycin-induced pulmonary fibrosis C57BL/6J mouse model assessed as effect on heart morphological changes at 25 to 50 mg/kg, ig administered daily via gavage and measured on day 14 by Hematoxylin-Eosin staining based analysis; format: organism-based; details: in vivo, po, 336 h, dose 25-50 mg/kg, time 14 day
smiles,measurement,setting,value
O=C(NO)c1ccc(CN2C(=O)C3=C(CCN(Cc4cccc(Cl)c4)C3)N3CCN=C23)cc1,Activity,[1],Non-toxic
same,IC50,Histone deacetylase 3,1140 nM
same,Activity,Mus musculus [2],Active
same,IC50,RPMI-8226 [3],440 nM
same,Activity,Mus musculus [4],Active
same,Activity,RPMI-8226 [5],"Dose-dependent-effect; Higher Activity Compared To Positive Drug, 1 Um Compound Iic, Chidamide, Acy-1215"
same,Activity,[6],Non-toxic
same,Activity,[7],Non-toxic
same,Activity,[8],Non-toxic
same,inhibition,[9],"Active; Intensity Of Increase Slightly Lower Than Positive Drug, Acy-1215"
same,Activity,[10],Non-toxic
same,Activity,Mus musculus [11],Active
same,Activity,Mus musculus [12],Active
same,Activity,[13],Non-toxic
